SMILES strings stand for the structures.

The inhibition is the relative decrease from the control value, in per cent.

In this experiment the target is T1, delta-5-desaturase (Rattus norvegicus, UniProt Q920R3).
T1 construct: the microsomal fraction of a rat river (10 μl), which had been diluted to 3 mg/ml; from tissue; host or cells: rat liver microsomal fraction
T1 sequence (Q920R3 whole entry): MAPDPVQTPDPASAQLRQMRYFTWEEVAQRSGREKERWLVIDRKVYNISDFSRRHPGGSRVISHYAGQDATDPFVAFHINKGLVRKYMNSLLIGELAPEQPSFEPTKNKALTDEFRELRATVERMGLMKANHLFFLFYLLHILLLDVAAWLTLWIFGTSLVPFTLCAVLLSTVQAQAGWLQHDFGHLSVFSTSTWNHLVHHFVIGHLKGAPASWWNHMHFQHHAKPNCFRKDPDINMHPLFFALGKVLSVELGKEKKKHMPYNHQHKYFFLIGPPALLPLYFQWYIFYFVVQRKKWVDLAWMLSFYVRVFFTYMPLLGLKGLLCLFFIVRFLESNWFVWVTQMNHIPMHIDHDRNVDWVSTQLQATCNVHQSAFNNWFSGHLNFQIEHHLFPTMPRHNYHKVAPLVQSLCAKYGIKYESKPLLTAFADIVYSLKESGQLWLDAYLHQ
Description: Inhibitory activity on delta-5-desaturase (rat liver microsomal fraction, 14C-eicosatrienoic acid, TLC). The class given is biochemical. The following applies: test compound at 10 μM, room temperature, 120 minutes. The method, then: An inhibitory activity of a test compound on delta-5-desaturase was measured according to the method described herein below. To a DMSO solution of the test compound which had been previously prepared, secondary dilution was carried out by using a buffer (300 mM NaH2PO4 [pH 7.4], 450 mM KCl, 30 mM NaF, 9 mM MgCl2, 4.5 mM glutathione [reduced form], 0.3% BSA [fatty acid free, SIGMA]). This diluent compound (10 μl) was added in a 96-well deep well block made of polypropylene, and then the microsomal fraction of a rat river (10 μl), which had been diluted to 3 mg/ml by using a microsome buffer (10 mM Tris-HCl [pH 7.4], 1 mM EDTA, and 250 mM sucrose), was added thereto. The enzyme reaction was initiated by adding 10 μl of 9 mM NADH, 9 mM ATP, 0.9 mM CoA and 10 μCi/ml (8E,11E,14E)-(1-^14C)eicosa-8,11,14-trienoic acid (PerkinElmer Inc.). The enzyme reaction was carried out at room temperature for 120 minutes, and then terminated by addition of 2.5 M NaOH (10 μl). Upon the completion of the reaction, the plate was covered with plate seal and incubated overnight in a dry heater of which temperature was set at 55° C. for saponification. Based on Bligh & Dyer method which had been described in a known document, Canadian Journal of Biochemistry and Physiology (Can. J. Biochem. Physiol.), Vol. 37, page 911, 1959), the solvent extraction of fatty acid was carried out by adding 200 μl of formic acid:methanol:chloroform (1:6:3), keeping the mixture as a single layer for a while, stirring the mixture to a sufficient level, and adding 120 μl of pure water to separate the mixture into two layers. 10 μl of the bottom chloroform layer was spotted on a reverse phase TLC plate (RP-18, 1154230001, Merck Japan, Ltd.) and then developed with acetonitrile:pure water:acetic acid (95:4.5:0.5). The TLC plate obtained after drying was transferred to an Imaging Plate (Fuji Photo Film Co., Ltd.) for more than 5 hours. Detection was carried out by using BAS-5000 (Fuji Photo Film Co., Ltd.). Numerization of thus-obtained image was carried out by using Multi Gauge Ver 2.3 (Fuji Photo Film Co., Ltd.) and an inhibitory ratio (%) of the test compound at 10 μM on delta-5-desaturase was obtained.
For orientation: Microsomes from liver hold many membrane-bound enzymes, among them those of drug oxidation.
In the case of `O=c1c2[nH]ccc2nc(SCC(F)(F)F)n1-c1ccc(OCC(F)(F)F)cc1` [Example 103, 3-[4-(2,2,2-Trifluoroethoxy)phenyl]-2-[(2,2,2-trifluoroethyl)sulfanyl]-3,5-dihydro-4H-pyrrolo[3,2-d]pyrimidin-4-one], the inhibition at 10 µM is 100%. As to `O=c1c2[nH]ccc2nc(SCCCS(=O)(=O)CC2CC2)n1-c1ccc(OCC(F)(F)F)cc1` [Example 165, 2-({3-[(Cyclopropylmethyl)sulfonyl]propyl}sulfanyl)-3-[4-(2,2,2-trifluoroethoxy)phenyl]-3,5-dihydro-4H-pyrrolo[3,2-d]pyrimidin-4-one], the inhibition at 10 µM was 99%. As for `N#CCCNC(=O)CCCSc1nc2[nH]ccc2c(=O)n1-c1ccc(OCCCC(F)(F)F)cc1` [Example 186, N-(2-cyanoethyl)-4-({4-oxo-3-[4-(4,4,4-trifluorobutoxy)phenyl]-4,7-dihydro-3H-pyrrolo[2,3-d]pyrimidin-2-yl}sulfanyl)butanamide], the inhibition at 10 µM turned out to be 100%.

On to `CC(C)(CO)NC(=O)CCCSc1nc2cc[nH]c2c(=O)n1-c1ccc(OCC(F)(F)F)cc1` [Example 100, N-(2-hydroxy-1,1-dimethylethyl)-4-({4-oxo-3-[4-(2,2,2-trifluoroethoxy)phenyl]-4,5-dihydro-3H-pyrrolo[3,2-d]pyrimidin-2-yl}sulfanyl)butanamide], for which the inhibition at 10 µM came to 100%. On to `Cc1c[nH]c2c(=O)n(-c3ccc(OCC(F)(F)F)cc3)c(SCCCC(=O)NCCC#N)nc12` [Example 172, N-(2-cyanoethyl)-4-({7-methyl-4-oxo-3-[4-(2,2,2-trifluoroethoxy)phenyl]-4,5-dihydro-3H-pyrrolo[3,2-d]pyrimidin-2-yl}sulfanyl)butanamide], for which the inhibition at 10 µM was found to be 99%. Turning to `O=C(CCCSc1nc2cc[nH]c2c(=O)n1-c1ccc(OCC(F)(F)F)cc1)N1CCCC1` [Example 110, 2-[(4-Oxo-4-pyrrolidin-1-ylbutyl)sulfanyl]-3-[4-(2,2,2-trifluoroethoxy)phenyl]-3,5-dihydro-4H-pyrrolo[3,2-d]pyrimidin-4-one], the inhibition at 10 µM amounted to 102%.

As for `CCCCOc1nc2[nH]ccc2c(=O)n1-c1ccc(OCC(F)(F)F)cc1` [Example 222, 2-Butoxy-3-[4-(2,2,2-trifluoroethoxy)phenyl]-3,7-dihydro-4H-pyrrolo[2,3-d]pyrimidin-4-one], the inhibition at 10 µM turned out to be 101%. For `N#CCCNC(=O)CCCSc1nc2cc[nH]c2c(=O)n1-c1ccc(OCCC(F)(F)F)cc1` [Example 90, N-(2-cyanoethyl)-4-({4-oxo-3-[4-(3,3,3-trifluoropropoxy)phenyl]-4,5-dihydro-3H-pyrrolo[3,2-d]pyrimidin-2-yl}sulfanyl)butanamide], the inhibition at 10 µM is 99%.

`O=C1Cc2c(nc(SC3CC3)n(-c3ccc(OCC(F)(F)F)cc3)c2=O)N1` [Example 291, 2-(Cyclopropylsulfanyl)-3-[4-(2,2,2-trifluoroethoxy)phenyl]-5,7-dihydro-3H-pyrrolo[2,3-d]pyrimidine-4,6-dione]: the inhibition at 10 µM came to 99%. `CCOCCCSc1nc2cc[nH]c2c(=O)n1-c1ccc(OCC(F)(F)F)cc1` [Example 81, 2-[(3-Ethoxypropyl)sulfanyl]-3-[4-(2,2,2-trifluoroethoxy)phenyl]-3,5-dihydro-4H-pyrrolo[3,2-d]pyrimidin-4-one]: the inhibition at 10 µM was determined as 97%. The value for `O=C1Cc2c(nc(OCC(F)F)n(-c3ccc(OCC(F)(F)F)cc3)c2=O)N1` [Example 275, 2-(2,2-Difluoroethoxy)-3-[4-(2,2,2-trifluoroethoxy)phenyl]-5,7-dihydro-3H-pyrrolo[2,3-d]pyrimidine-4,6-dione] was 99%; that for `O=c1c2cc[nH]c2nc(OC2CCC2)n1-c1ccc(OCC(F)(F)F)cc1` [Example 247, 2-(Cyclobutyloxy)-3-[4-(2,2,2-trifluoroethoxy)phenyl]-3,7-dihydro-4H-pyrrolo[2,3-d]pyrimidin-4-one] was 103%. As to `CCOCCSc1nc2cc[nH]c2c(=O)n1-c1ccc(OCC2CC2)cc1` [Example 143, 3-[4-(Cyclopropylmethoxy)phenyl]-2-[(2-ethoxyethyl)sulfanyl]-3,5-dihydro-4H-pyrrolo[3,2-d]pyrimidin-4-one], the inhibition at 10 µM turned out to be 101%. As to `CC(C)Oc1nc2[nH]ccc2c(=O)n1-c1ccc(OCC(F)(F)F)cc1` [Example 221, 2-(1-Methylethoxy)-3-[4-(2,2,2-trifluoroethoxy)phenyl]-3,7-dihydro-4H-pyrrolo[2,3-d]pyrimidin-4-one], the inhibition at 10 µM was 104%. Take `CC(C)(C)CCOc1ccc(-n2c(SCCCC(=O)NCCC#N)nc3[nH]ccc3c2=O)cc1` [Example 176, N-(2-cyanoethyl)-4-({3-[4-(3,3-dimethylbutoxy)phenyl]-4-oxo-4,7-dihydro-3H-pyrrolo[2,3-d]pyrimidin-2-yl}sulfanyl)butanamide]: the inhibition at 10 µM is 98%.

On to `CCOc1ccc(-n2c(SCCCCC(=O)NCCC#N)nc3cc[nH]c3c2=O)cc1` [Example 65, N-(2-cyanoethyl)-5-{[3-(4-ethoxyphenyl)-4-oxo-4,5-dihydro-3H-pyrrolo[3,2-d]pyrimidin-2-yl]sulfanyl}pentanamide], for which the inhibition at 10 µM stood at 97%. The value for `CCS(=O)(=O)c1nc2[nH]ccc2c(=O)n1-c1ccc(OCC(F)(F)F)cc1` [Example 207, 2-(Ethylsulfonyl)-3-[4-(2,2,2-trifluoroethoxy)phenyl]-3,7-dihydro-4H-pyrrolo[2,3-d]pyrimidin-4-one] was 101%; that for `CCCSc1nc2[nH]ccc2c(=O)n1-c1ccc(OCC(F)(F)F)cc1` [Example 224, 2-(Propylsulfanyl)-3-[4-(2,2,2-trifluoroethoxy)phenyl]-3,7-dihydro-4H-pyrrolo[2,3-d]pyrimidin-4-one] was 100%; that for `O=c1c2[nH]ccc2nc(SCCO)n1-c1ccc(OCC2CC2)cc1` [Example 144, 3-[4-(Cyclopropylmethoxy)phenyl]-2-[(2-hydroxyethyl)sulfanyl]-3,5-dihydro-4H-pyrrolo[3,2-d]pyrimidin-4-one] was 101%.

Turning to `O=c1c2[nH]ccc2nc(SCCC2(O)CCOCC2)n1-c1ccc(OCC2CC2)cc1` [Example 155, 3-[4-(Cyclopropylmethoxy)phenyl]-2-{[2-(4-hydroxytetrahydro-2H-pyran-4-yl)ethyl]sulfanyl}-3,5-dihydro-4H-pyrrolo[3,2-d]pyrimidin-4-one], the inhibition at 10 µM is 99%. With `CCSc1nc2[nH]ccc2c(=O)n1-c1ccc(OC(F)(F)F)cc1` [Example 254, 2-(Ethylsulfanyl)-3-[4-(trifluoromethoxy)phenyl]-3,7-dihydro-4H-pyrrolo[2,3-d]pyrimidin-4-one], the inhibition at 10 µM is 98%. For the molecule `N#CCCNC(=O)CCCSc1nc2cc[nH]c2c(=O)n1-c1ccc(OCC2CC2)cc1` [Example 92, N-(2-cyanoethyl)-4-({3-[4-(cyclopropylmethoxy)phenyl]-4-oxo-4,5-dihydro-3H-pyrrolo[3,2-d]pyrimidin-2-yl}sulfanyl)butanamide], the inhibition at 10 µM came out at 102%.

`N#CCSc1nc2c(c(=O)n1-c1ccc(OCC(F)(F)F)cc1)CC(=O)N2` [Example 312, ({4,6-Dioxo-3-[4-(2,2,2-trifluoroethoxy)phenyl]-4,5,6,7-tetrahydro-3H-pyrrolo[2,3-d]pyrimidin-2-yl}sulfanyl)acetonitrile]: the inhibition at 10 µM amounted to 97%.

The values above are taken from US20100190747A1, “Fused ring compound and use thereof” (priority 2009, published 2010).
